Data published in US7771712B2, “Composition for attracting blood sucking arthropods and fruit flies” (priority 2002, dated 2010).

System: female A. aegypti
Test: Y-tube olfactometer, single compound added to index finger scent against pure finger
Assay type: in vivo, Aedes aegypti
Experimental: In this example, the effect of adding certain compounds to the scent of a finger of a human volunteer was tested, using the set-up as described for example 1. The right and left index finger of each test person were tested in direct competition with simultaneous addition of a single compound to one finger; Martina (A) is highly, Martin (B) medium, and Doris (C) low attractive. The test components were alternately added to the right or to the left finger, respectively. Bars (means of 16 trials±S.E.M.) represent the percentage of mosquitoes trapped in the respective upwind chamber. Black bars represent the pure finger, white bars the mixture of finger plus the odor stimulus indicated below the bar; stimulus labels as described in FIG. 3A; asterisks indicate a significant preference (P<0.05, t-test for paired samples).
A) is a top view of the olfactometer for testing mosquitoes' odour preference. The spatial distribution of odourants in the air are outlined according to the appearance of TiCl4 smoke, which was injected into the olfactometer instead of the odour stimulus. In the arms of the olfactometer the smoke was homogeneous distributed^20. More turbulent odour eddies and filaments emerged in the rectangular chamber, although a steep gradient between both air streams can still be observed in the joined straight tube. For each test, 20 female A. aegypti mosquitoes were used from cultures of Bayer AG in Monheim, 5-15 days old, which had no blood meal before. Details of the olfactometer and the experimental procedure are described elsewhere (Geier, M. & Boeckh, J. Entomol. exp. appl. 92, 9-19 (1999); Geier, M., Bosch, O. J. & Boeckh, J. Chem. Sens. 24, 647-653 (1999)).
At stimulus onset, 20 mosquitoes in the start chamber are set free to fly through the olfactometer. During their zig zag flight through the straight tube they encounter alternately air streams from either arm. Following the favoured air stream during upwind flight the mosquitoes enter the respective upwind chamber where they are counted 30 s after stimulus onset. […]

CC(=O)O [acetic acid, Acetic acid]
Attractiveness of finger scent plus compound against pure finger (up to 50-fold higher concentration than in the standard blend, any of the persons): did not change the attractiveness

CCCCCC(=O)O [capronic acid, Caproic acid]
Attractiveness of finger scent plus compound against pure finger (FIG. 4 C, low attractive person, all concentrations): more attractive

N [Ammonia+100, Ammonia]
Attractiveness of finger scent plus compound against pure finger (FIG. 4 A, highly attractive person): less attractive
